Reference: publication PMC6358866 (International Journal of Molecular Sciences, 2019)

Tests used:
[1] = system: Pseudomonas aeruginosa ATCC 9027 biofilm; assay: Activity against biofilms on 96-well plates after withdrawal of the antimicrobial (additional 24 h in MHB II); format: cell-based; settings: for effect of pretreatment on biofilm after withdrawal: PA biofilm on polystyrene, concentrations lower than 32 mg/L, after withdrawal and additional 24 h
Protocol: (§1) Bacterial strains were obtained from the Polish Collection of Microorganisms (Polish Academy of Science, Wroclaw, Poland). Three Gram-positive and two Gram-negative strains linked with CL-related infections were chosen for the study (Staphylococus aureus ATCC 6538, Staphylococcus epidermidis ATCC 14990, Pseudomonas aeruginosa ATCC 9027, Escherichia coli ATCC 25922, and Enterococcus faecalis ATCC 29212). The bacteria were cultured in a Mueller Hinton Broth II (MHB, Biocorp, Warsaw, Poland) overnight, under aerobic conditions at 37 °C. […] Bacterial suspensions were added to 96-well plates (Kartell, Noviglio, Italy) at initial inoculums of ca. 5 × 10^8 CFU/mL and incubated under aerobic conditions with shaking (120 rpm) at 37 °C for 24 h. […] After exposure, the wells were washed three times with PBS and a solution of resazurin (Sigma Aldrich, St. […] This cell viability reagent is metabolized by bacterial dehydrogenases upon contact with living cells. As a result, the blue dye is reduced to a pink resorufin. After 1.5 h of incubation, the absorbance was measured at 570 and 600 nm using a microplate reader (Thermo Fisher Scientific, Waltham, MA, USA). […] The procedure was conducted as described in Section 4.3, with the difference that after exposure to antimicrobials, the wells were washed three times with PBS and pure MHB II was added. The samples were incubated for another 24 h (aerobic conditions, 120 rpm shaking, 37 °C). […] The absorbance was measured at the same wave lengths and metabolic activity was calculated according to the formula given in Section 4.3. The presented results are means of nine results obtained on three different days.

[2] = system: Escherichia coli ATCC 25922 biofilm; assay: as above; format: cell-based; settings: after withdrawal and additional 24 h in MHB II
Protocol: as §1

[3] = system: Staphylococcus epidermidis ATCC 14990 biofilm; assay: as above; format: cell-based; settings: after withdrawal and additional 24 h in MHB II; for MBEC II 50: lowest concentration giving permanent reduction of metabolic activity by at least 50 ± 5%; for MBEC II 90: lowest concentration giving permanent reduction of metabolic activity by at least 90 ± 5%
Protocol: as §1

[4] = system: Enterococcus faecalis ATCC 29212 biofilm; assay: as above; format: cell-based; settings: after withdrawal and additional 24 h in MHB II
Protocol: as §1

[5] = system: Staphylococus aureus ATCC 6538 biofilm; assay: as above; format: cell-based, Staphylococcus aureus; settings: after withdrawal and additional 24 h in MHB II; for MBEC II 50: lowest concentration giving permanent reduction of metabolic activity by at least 50 ± 5%; for MBEC II 90: lowest concentration giving permanent reduction of metabolic activity by at least 90 ± 5%
Protocol: as §1

[6] = system: Pseudomonas aeruginosa ATCC 9027 biofilm; assay: Activity against biofilms formed on polystyrene 96-well plates, 24 h exposure, resazurin; format: cell-based; settings: for MBEC 50: lowest concentration reducing metabolic activity by at least 50 ± 5%; for MBEC 50 / MBEC 90: polystyrene plate, 24 h exposure in MHB II, resazurin; for MBEC 90: lowest concentration reducing metabolic activity by at least 90 ± 5%, mean of nine results
Protocol: (§2) Bacterial strains were obtained from the Polish Collection of Microorganisms (Polish Academy of Science, Wroclaw, Poland). […] The bacteria were cultured in a Mueller Hinton Broth II (MHB, Biocorp, Warsaw, Poland) overnight, under aerobic conditions at 37 °C. After incubation, the liquid cultures were centrifuged (2500 rpm for 10 min) and washed with phosphoric buffer (PBS, AppliChem, Darmstadt, Germany) three times and resuspended in fresh MHB II for inoculums appropriate for the performed assays.
(§3) Bacterial suspensions were added to 96-well plates (Kartell, Noviglio, Italy) at initial inoculums of ca. 5 × 10^8 CFU/mL and incubated under aerobic conditions with shaking (120 rpm) at 37 °C for 24 h. […] After exposure, the wells were washed three times with PBS and a solution of resazurin (Sigma Aldrich, St. Louis, MO, USA) in MHB II (0.01%) was added. This cell viability reagent is metabolized by bacterial dehydrogenases upon contact with living cells. As a result, the blue dye is reduced to a pink resorufin. After 1.5 h of incubation, the absorbance was measured at 570 and 600 nm using a microplate reader (Thermo Fisher Scientific, Waltham, MA, USA). […] The metabolic activity of bacteria in the samples was measured according to the following formula:
(§4) Metabolic activity (%) = (ΔAbs of sample − ΔAbs of negative control)/(ΔAbs of positive control − ΔAbs of negative control);
(§5) ΔAbs = absorbance at 570 nm − absorbance at 600 nm;
(§6) The presented results are the means of nine results obtained on three different days.

[7] = system: Escherichia coli ATCC 25922 biofilm; assay: as above; format: cell-based; settings: polystyrene plate, 24 h exposure in MHB II; for MBEC 50: lowest concentration reducing metabolic activity by at least 50 ± 5%
Protocol: as §2, §3, §4, §5, §6

[8] = system: Staphylococcus epidermidis ATCC 14990 biofilm; assay: as above; format: cell-based; settings: for MBEC 50: lowest concentration reducing metabolic activity by at least 50 ± 5%; for MBEC 50 / MBEC 90: polystyrene plate, 24 h exposure in MHB II, resazurin; for MBEC 90: lowest concentration reducing metabolic activity by at least 90 ± 5%, mean of nine results
Protocol: as §2, §3, §4, §5, §6

[9] = system: Enterococcus faecalis ATCC 29212 biofilm; assay: as above; format: cell-based; settings: polystyrene plate, 24 h exposure in MHB II; for MBEC 50: lowest concentration reducing metabolic activity by at least 50 ± 5%
Protocol: as §2, §3, §4, §5, §6

[10] = system: Staphylococus aureus ATCC 6538 biofilm; assay: as above; format: cell-based, Staphylococcus aureus; settings: polystyrene plate, 24 h exposure in MHB II, resazurin; for MBEC 50: lowest concentration reducing metabolic activity by at least 50 ± 5%; for MBEC 90: lowest concentration reducing metabolic activity by at least 90 ± 5%, mean of nine results
Protocol: as §2, §3, §4, §5, §6

[11] = system: human cells (keratinocytes, erythrocytes); settings: cited from earlier work
Text: PA was also the most difficult strain to eliminate from the surface of CL in the previous study, in which we investigated amphibian peptides and short lipopeptides containing hexadecanoic acid according to their potential application as CL solution additives. The results of performed antimicrobial assays were also very promising. However, due to high toxicity towards human keratinocytes in vitro, the ocular applications of lipopeptides with hexadecanoic acid are not worth further consideration. In contrast to those lipopeptides, the compound with two residues of decanoic aci ... || The excellent antimicrobial activity was previously reported for many lipopeptides. This, along with the relatively low production costs, has encouraged many research groups to study their antimicrobial activities and design molecules with optimal properties. C16-KK-NH2 is one of such extensively studied compounds. […] Other derivatives ...

[12] = lowest concentration giving permanent reduction of metabolic activity by at least 50 ± 5%
[13] = lowest concentration giving permanent reduction of metabolic activity by at least 90 ± 5%
[14] = lowest concentration reducing metabolic activity by at least 90 ± 5%, mean of nine results

| Compound | effect of pretreatment on biofilm after withdrawal [1] | MBEC II 50 [3] [mg/L] | MBEC II 90 [3] [mg/L] | MBEC II 50 [5] [mg/L] | MBEC II 90 [5] [mg/L] | MBEC 50 [6] [mg/L] | MBEC 90 [6] [mg/L] | MBEC 50 [7] [mg/L] | MBEC 50 [8] [mg/L] | MBEC 90 [8] [mg/L] | MBEC 50 [9] [mg/L] | MBEC 50 [10] [mg/L] | MBEC 90 [10] [mg/L] | other results |
| --- | --- | --- | --- | --- | --- | --- | --- | --- | --- | --- | --- | --- | --- | --- |
| O=C(N[C@H](CO)[C@H](O)c1ccc([N+](=O)[O-])cc1)C(Cl)Cl [Chloramphenicol] | significant promotion of biofilm growth | >256 | >256 | >256 | >256 | 4 | 128 | 8 | 32 | 256 | 32 | 128 | >256 | MBEC II 50 ([1]; lowest concentration giving permanent reduction of metabolic activity by at least 50 ± 5%, after withdrawal and additional 24 h in MHB II): 256 mg/L; MBEC II 90 ([1]; lowest concentration giving permanent reduction of metabolic activity by at least 90 ± 5%, after withdrawal and additional 24 h in MHB II): >256 mg/L; MBEC II 50 [2, 12]: >256 mg/L; MBEC II 90 [2, 13]: >256 mg/L; MBEC II 50 [4, 12]: >256 mg/L; MBEC II 90 [4, 13]: >256 mg/L; reduction of metabolic activities ([6]; PA biofilm on polystyrene, 24 h exposure, 32–64 mg/L): ~70%; MBEC 90 [7, 14]: 16 mg/L; metabolic activity of bacteria ([8]; SE biofilm on polystyrene, 24 h exposure, 64 mg/L): ~25%; MBEC 90 [9, 14]: >256 mg/L |
| C16-KK-NH2 |  |  |  |  |  |  |  |  |  |  |  |  |  | toxicity towards human cells [11]: high toxicity |
| neomycin (sulfate) | enhanced metabolism of bacteria in comparison to the positive control | 8 | 16 | 64 | 64 | 8 | 64 | 8 | ≤1 | 16 | 64 | 4 | 64 | concentration giving a permanent antibiofilm effect ([3]; SE biofilm on polystyrene): 16 mg/L; reduction of metabolic activity ([6]; PA biofilm on polystyrene, 24 h exposure, 32 mg/L): 75% |
